Data from US20110206673A1, “POLYPEPTIDES AND POLYNUCLEOTIDES FOR ARTEMIN AND RELATED LIGANDS, AND METHODS OF USE THEREOF” (priority 2007, published 2011).

Columns and labels:
MCF-7 cells = test: Soft agar growth assay (96-well, MTT readout); assay type: cell-based, human
Method: To perform soft agar colony formation assays, 50 μl of 0.5% agarose in serum containing medium was plated onto each well of 96-well flat-bottom microplates, as a base agar layer. Next, 5×10^3 cells in a 100 μl mixture of 0.35% agarose in serum containing medium were plated onto the base layer. Subsequently, 100 μl of the medium was added to prevent drying of the agarose gels. For antibody treatment, the antibodies at the indicated concentrations were added into the top agar layer and the culture medium to ensure the complete exposure of cells to antibodies. The plates were incubated at 37° C. in a humidified incubator. The top culture medium including the antibodies was changed every 3 days. After 10 days, 20 μl of 5 mg/ml MTT (Sigma Chemical Company, St Louis, Mo., USA) was added into each well and incubated at 37° C. for 4 hours followed by adding 100 μl of acidified lysis buffer (0.01% HCl in 10% SDS). The plate was incubated at 42° C. to ensure a homogenous mixture. The plate was shaken briefly and then read at 595 nm (test wavelength) and 690 nm (reference wavelength) using the Synergy™ 2 Multi-Mode Microplate Reader (BioTek instruments, Inc., Vermont, USA).

[1] = system: MCF-7 breast cancer cells; conditions: cited from earlier work
[2] = system: MCF7-ARTN and MCF7-Vec cells; test: Soft agar colony formation in the presence of Tamoxifen (six-well); assay type: cell-based, human; conditions: 1 μM and 5 μM
Method: For soft agar colony formation assay, cells were cultured in 6-well plates first covered with a layer of agar (0.5%). Cells were grown in RPMI 1640 media containing 10% FBS. The middle layer included 5×10^3 cells in 0.35% agar in RPMI 1640 media containing 10% FBS. Media was added as the top layer to prevent drying of the agarose gels. The plates were incubated at 37° C. in a humidified incubator for 14 days. After this, cells were stained with 0.5 ml of 0.005% crystal violet in distilled water for 1 h and distained for 2 h in water. Colonies were inspected and photographed.

[3] = system: MCF7-ARTN and MCF7-Vec cells; test: MTT assay of chemotherapy drug induced death; assay type: cell-based, human; conditions: 10% serum; both MCF7-ARTN and MCF7-Vec cells
Method: MTT (3-[4,5-dimethylthiazol-2-yl]-2,5-diphenyl tetrazolium bromide) assays were used measure cell proliferation. Cells were seeded into 96 well flat bottom tissue culture microplates in 100 μl RPMI-1640 culture medium containing 10% FBS at a concentration of 5×10^3 cells/well. On assay day, 10 μl of the MTT labelling reagent was added at a final concentration 0.5 mg/ml to each well and the cells were labelled for 5 h in the incubator. At the end of the incubation period, the media was removed and the converted dye was solubilised with 100 μl solubilising solution (0.01N HCl in 10% SDS in water). The plates were then sealed and placed at 37° C. overnight to completely solubilise the purple formazan crystals. The absorbance of the converted dye was measured using Spectra Max 250 multiplate reader at a wavelength of 570 nm with background subtraction at 650 nm. Each treatment was performed at least in triplicate.

Row | Structure (SMILES) | soft agar growth compared with controls (MCF-7 cells; Faslodex (ICI 182,780) 100 nM alone) | effect at lower concentrations ([1]; 0.1-1 μM) | effect at pharmacological concentrations ([1]; above 5 μM) | soft agar growth compared with controls (MCF-7 cells; Tamoxifen 1 μM alone) | number of colonies formed in soft agar [2] | cell death (MTT viability) [3]
1 | C[C@]12CC[C@@H]3c4ccc(O)cc4C[C@@H](CCCCCCCCC[S+]([O-])CCCC(F)(F)C(F)(F)F)[C@H]3[C@@H]1CC[C@@H]2O (stereo partly drawn) [Faslodex, Faslodex (ICI 182,780)] | 55.8% |  |  |  |  | 
2 | CC/C(=C(\c1ccccc1)c1ccc(OCCN(C)C)cc1)c1ccccc1 [Tamoxifen] |  | induce a cell-cycle arrest | induce apoptosis | 40.4% | reduced the number of colonies | caused cell death in a dose dependent manner
